The NIST ThermoML archive (doi:10.1016/j.jct.2008.07.010)
± gives the expanded uncertainty stated by the source.

Experiment: xn = mol fraction of the nth substance listed
Conditions: 101 kPa, Liquid; for viscosity: Capillary tube (Ostwald / Ubbelohde) method; for speed of sound: Sing-around technique in a fixed-path interferometer; for mass density: Vibrating tube method

CC(C)CCCC(C)CCCC(C)CCCCC(C)CCCC(C)CCCC(C)C (stereo not given) [2,6,10,15,19,23-hexamethyltetracosane] + CC(C)O
Conditions | mass density, 298.15 K [kg/m3] | mass density, 303.15 K [kg/m3] | mass density, 308.15 K [kg/m3] | speed of sound, 298.15 K [m/s] | speed of sound, 303.15 K [m/s] | speed of sound, 308.15 K [m/s] | viscosity, 298.15 K [mPa·s] | viscosity, 303.15 K [mPa·s] | viscosity, 308.15 K [mPa·s]
x2 = 0 | 805.122 ± 0.24 | 801.912 ± 0.24 | 798.709 ± 0.24 | 1381.9 ± 1.3 | 1364.1 ± 1.3 | 1346.5 ± 1.3 | 28.26 ± 0.31 | 22.09 ± 0.26 | 17.77 ± 0.21
x2 = 0.0621 | 804.504 ± 0.23 | 801.238 ± 0.23 | 797.982 ± 0.23 | 1377.4 ± 1.2 | 1359.1 ± 1.2 | 1341.4 ± 1.2 | 24.12 ± 0.28 | 18.75 ± 0.21 | 15.29 ± 0.16
x2 = 0.0949 | 804.196 ± 0.23 | 800.909 ± 0.23 | 797.625 ± 0.23 | 1374.9 ± 1.2 | 1356.8 ± 1.2 | 1338.9 ± 1.2 | 22.69 ± 0.25 | 17.69 ± 0.2 | 14.48 ± 0.16
x2 = 0.1438 | 803.771 ± 0.22 | 800.451 ± 0.22 | 797.133 ± 0.22 | 1371.4 ± 1.2 | 1353.3 ± 1.2 | 1335.5 ± 1.2 | 21.22 ± 0.23 | 16.63 ± 0.18 | 13.66 ± 0.14
x2 = 0.218 | 803.155 ± 0.21 | 799.796 ± 0.21 | 796.425 ± 0.21 | 1366 ± 1.2 | 1347.9 ± 1.2 | 1330 ± 1.2 | 19.65 ± 0.21 | 15.45 ± 0.17 | 12.74 ± 0.13
x2 = 0.2865 | 802.572 ± 0.2 | 799.185 ± 0.2 | 795.767 ± 0.2 | 1360.2 ± 1.2 | 1342.2 ± 1.1 | 1324.2 ± 1.1 | 18.5 ± 0.19 | 14.56 ± 0.16 | 12.03 ± 0.13
x2 = 0.3119 | 802.336 ± 0.2 | 798.955 ± 0.2 | 795.521 ± 0.2 | 1358.2 ± 1.1 | 1340 ± 1.1 | 1321.9 ± 1.1 | 18.11 ± 0.19 | 14.24 ± 0.15 | 11.76 ± 0.12
x2 = 0.4022 | 801.467 ± 0.19 | 798.03 ± 0.19 | 794.563 ± 0.19 | 1349.5 ± 1.1 | 1331.3 ± 1.1 | 1313.3 ± 1.1 | 16.68 ± 0.17 | 13.05 ± 0.14 | 10.84 ± 0.11
x2 = 0.5142 | 800.109 ± 0.18 | 796.619 ± 0.18 | 793.069 ± 0.18 | 1336.4 ± 1.1 | 1318.1 ± 1.1 | 1299.9 ± 1.1 | 14.34 ± 0.13 | 11.37 ± 0.12 | 9.424 ± 0.1
x2 = 0.5952 | 798.83 ± 0.17 | 795.275 ± 0.17 | 791.676 ± 0.18 | 1324.5 ± 1 | 1306.4 ± 1 | 1288.1 ± 1 | 11.77 ± 0.12 | 9.455 ± 0.095 | 7.904 ± 0.078

CCCCCCCCCCCCCCCC [hexadecane] + CC(C)O
Conditions | mass density, 298.15 K [kg/m3] | mass density, 303.15 K [kg/m3] | mass density, 308.15 K [kg/m3] | speed of sound, 298.15 K [m/s] | speed of sound, 303.15 K [m/s] | speed of sound, 308.15 K [m/s] | viscosity, 298.15 K [mPa·s] | viscosity, 303.15 K [mPa·s] | viscosity, 308.15 K [mPa·s]
x2 = 0 | 770.456 ± 0.24 | 766.981 ± 0.24 | 763.52 ± 0.24 | 1338.6 ± 1.3 | 1320 ± 1.3 | 1301.7 ± 1.3 | 3.041 ± 0.026 | 2.706 ± 0.024 | 2.409 ± 0.022
x2 = 0.0441 | 770.067 ± 0.23 | 766.622 ± 0.23 | 763.106 ± 0.24 | 1334.2 ± 1.2 | 1315.5 ± 1.2 | 1297.1 ± 1.2 | 2.867 ± 0.026 | 2.521 ± 0.023 | 2.231 ± 0.02
x2 = 0.1285 | 769.792 ± 0.23 | 766.198 ± 0.23 | 762.606 ± 0.23 | 1325.5 ± 1.2 | 1306.8 ± 1.2 | 1288.2 ± 1.2 | 2.654 ± 0.024 | 2.312 ± 0.021 | 2.034 ± 0.019
x2 = 0.1617 | 769.728 ± 0.22 | 766.093 ± 0.22 | 762.479 ± 0.22 | 1321.8 ± 1.2 | 1302.9 ± 1.2 | 1284.7 ± 1.2 | 2.601 ± 0.023 | 2.264 ± 0.021 | 1.989 ± 0.018
x2 = 0.2294 | 769.59 ± 0.21 | 765.938 ± 0.22 | 762.287 ± 0.22 | 1314.8 ± 1.2 | 1295.9 ± 1.2 | 1277.2 ± 1.2 | 2.531 ± 0.022 | 2.214 ± 0.02 | 1.944 ± 0.018
x2 = 0.2707 | 769.56 ± 0.21 | 765.896 ± 0.21 | 762.206 ± 0.21 | 1310.1 ± 1.1 | 1291.2 ± 1.1 | 1272.5 ± 1.1 | 2.504 ± 0.022 | 2.199 ± 0.02 | 1.928 ± 0.018
x2 = 0.332 | 769.565 ± 0.2 | 765.88 ± 0.21 | 762.156 ± 0.21 | 1303.1 ± 1.1 | 1284.1 ± 1.1 | 1265.6 ± 1.1 | 2.47 ± 0.021 | 2.176 ± 0.019 | 1.92 ± 0.018
x2 = 0.414 | 769.697 ± 0.2 | 765.976 ± 0.2 | 762.174 ± 0.2 | 1293.5 ± 1.1 | 1274.5 ± 1.1 | 1255.6 ± 1.1 | 2.43 ± 0.02 | 2.153 ± 0.019 | 1.904 ± 0.017
x2 = 0.5064 | 770.039 ± 0.19 | 766.23 ± 0.19 | 762.374 ± 0.19 | 1280.3 ± 1.1 | 1261.3 ± 1.1 | 1242.7 ± 1.1 | 2.36 ± 0.019 | 2.08 ± 0.018 | 1.843 ± 0.017
x2 = 0.6119 | 770.701 ± 0.18 | 766.793 ± 0.18 | 762.751 ± 0.18 | 1263.2 ± 1 | 1244.4 ± 1 | 1225.5 ± 1 | 2.242 ± 0.019 | 1.95 ± 0.017 | 1.719 ± 0.016
x2 = 0.7008 | 771.594 ± 0.17 | 767.564 ± 0.17 | 763.551 ± 0.17 | 1245.9 ± 0.98 | 1227.1 ± 1 | 1208.2 ± 1 | 2.123 ± 0.019 | 1.821 ± 0.017 | 1.599 ± 0.015
x2 = 0.762 | 772.47 ± 0.17 | 768.35 ± 0.17 | 764.298 ± 0.17 | 1231.6 ± 0.95 | 1212.9 ± 1 | 1194 ± 1 | 2.051 ± 0.019 | 1.723 ± 0.016 | 1.51 ± 0.014
x2 = 0.8419 | 774.082 ± 0.16 | 769.888 ± 0.16 | 765.761 ± 0.17 | 1208.4 ± 0.91 | 1189.9 ± 0.9 | 1171.2 ± 0.9 | 1.974 ± 0.02 | 1.628 ± 0.016 | 1.418 ± 0.013
x2 = 0.9188 | 776.284 ± 0.16 | 772.263 ± 0.16 | 768.061 ± 0.16 | 1180 ± 0.89 | 1161.6 ± 0.9 | 1143.6 ± 0.9 | 1.96 ± 0.02 | 1.608 ± 0.016 | 1.419 ± 0.013
x2 = 0.9498 | 777.915 ± 0.16 | 773.694 ± 0.16 | 769.382 ± 0.16 | 1166.2 ± 0.88 | 1148.3 ± 0.9 | 1130.3 ± 0.9 | 1.983 ± 0.019 | 1.647 ± 0.016 | 1.454 ± 0.013
